What was measured:
[1] = tested on: full epidermal/dermal thickness human skin cultures; assay: Histology (hematoxylin/eosin) of human skin cultures; type: cell-based; conditions: 0.3% CBD; 0.5% equol; combination; 40× magnification
Method: FIG. 14 depicts photomicrographs (40× magnification) of full epidermal/dermal thickness human skin cultures. […] Standard bar=50 microns.
In human skin gene expression analysis full epidermal/dermal thickness human skin cultures were used.
The skin cultures were treated with: (a) transcutol vehicle; (b) 0.3% CBD; and (c) 0.5% equol and 0.3% CDB plus 0.5% equol.

[2] = tested on: full thickness epidermal/dermal human skin cultures; assay: MTT assay cell viability, full thickness skin cultures; type: cell-based
Text: Testing CBD and equol at various concentration to determine tissue/cell viability as indicated on the y- and x-axis and figure labels for subsequent human skin gene analysis. Triton X-100 treatment (cytotoxic control). Note: The MTT assay is a colorimetric assay, which has been validated for measuring cell metabolic activity. It is based on the ability of nicotinamide adenine dinucleotide phosphate (NADPH)-dependent cellular oxidoreductase enzymes to reduce the tetrazolium dye MTT to its insoluble formazan, which has a purple color. The absorbance of this colored solution can be quantified by measuring at a certain wavelength (usually between 500 and 600 nm) by a spectrophotometer. The MTT method is one of the most widely used methods to analyze cell proliferation and viability in human skin cells (Triglia et al., 1991).

[3] = tested on: dermal layer (only) of the human skin cultures; assay: MTT assay viability, dermal layer (only); type: cell-based
Text: Testing CBD and equol at various concentration to determine tissue/cell viability as indicated on the y- and x-axis and figure labels for subsequent human skin gene analysis. Triton X-100 treatment (cytotoxic control).

[4] = target: T1, 5α-Reductase Enzyme (type 1 in skin) (Homo sapiens, UniProt P18405); conditions: cited from earlier work
T1 sequence (P18405 1-259): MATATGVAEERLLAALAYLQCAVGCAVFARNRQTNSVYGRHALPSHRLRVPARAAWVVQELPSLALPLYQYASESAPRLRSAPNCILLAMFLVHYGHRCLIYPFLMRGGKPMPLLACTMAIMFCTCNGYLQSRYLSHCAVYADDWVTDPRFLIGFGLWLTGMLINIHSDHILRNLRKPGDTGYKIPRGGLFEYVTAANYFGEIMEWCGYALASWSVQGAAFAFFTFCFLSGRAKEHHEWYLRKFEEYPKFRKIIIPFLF

[5] = target: Estrogen Receptor Beta (β) (Homo sapiens, UniProt Q92731); conditions: cited from earlier work; for Ki: read-out: Binds Estrogen Receptor Beta (β), Ki
[6] = target: Estrogen Receptor Alpha (α) (Homo sapiens, UniProt P03372); conditions: cited from earlier work; for Ki: read-out: Binds Estrogen Receptor Alpha (α), Ki
[7] = cited from earlier work
Collagen = conditions: cited from earlier work
Elastin = conditions: cited from earlier work
TIMP1 = conditions: cited from earlier work
Growth Factors = conditions: cited from earlier work
Inflammatory Molecules = conditions: cited from earlier work
[8] = drug delivery studies; cited from earlier work
[9] = target: T2, Estrogen Related Receptor gamma (γ) (Homo sapiens, UniProt P62508); conditions: cited from earlier work
T2 sequence (P62508 1-458): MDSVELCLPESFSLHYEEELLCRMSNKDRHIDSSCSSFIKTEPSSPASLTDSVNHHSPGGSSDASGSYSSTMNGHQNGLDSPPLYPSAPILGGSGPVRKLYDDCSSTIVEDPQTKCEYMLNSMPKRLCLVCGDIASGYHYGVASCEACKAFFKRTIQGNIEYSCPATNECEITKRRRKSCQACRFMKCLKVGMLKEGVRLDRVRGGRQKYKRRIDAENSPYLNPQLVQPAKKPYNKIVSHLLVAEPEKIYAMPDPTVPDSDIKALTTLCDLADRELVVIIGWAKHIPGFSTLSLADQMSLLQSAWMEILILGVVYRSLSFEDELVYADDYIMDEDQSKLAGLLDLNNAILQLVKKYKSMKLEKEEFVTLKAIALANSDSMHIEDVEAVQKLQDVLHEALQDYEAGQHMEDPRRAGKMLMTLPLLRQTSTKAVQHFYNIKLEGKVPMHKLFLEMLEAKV

Elastase = conditions: cited from earlier work
MMPs = conditions: cited from earlier work
Nrf2 = target: T3, Nrf2 (Homo sapiens, UniProt Q16236); conditions: cited from earlier work
T3 sequence (Q16236 1-605): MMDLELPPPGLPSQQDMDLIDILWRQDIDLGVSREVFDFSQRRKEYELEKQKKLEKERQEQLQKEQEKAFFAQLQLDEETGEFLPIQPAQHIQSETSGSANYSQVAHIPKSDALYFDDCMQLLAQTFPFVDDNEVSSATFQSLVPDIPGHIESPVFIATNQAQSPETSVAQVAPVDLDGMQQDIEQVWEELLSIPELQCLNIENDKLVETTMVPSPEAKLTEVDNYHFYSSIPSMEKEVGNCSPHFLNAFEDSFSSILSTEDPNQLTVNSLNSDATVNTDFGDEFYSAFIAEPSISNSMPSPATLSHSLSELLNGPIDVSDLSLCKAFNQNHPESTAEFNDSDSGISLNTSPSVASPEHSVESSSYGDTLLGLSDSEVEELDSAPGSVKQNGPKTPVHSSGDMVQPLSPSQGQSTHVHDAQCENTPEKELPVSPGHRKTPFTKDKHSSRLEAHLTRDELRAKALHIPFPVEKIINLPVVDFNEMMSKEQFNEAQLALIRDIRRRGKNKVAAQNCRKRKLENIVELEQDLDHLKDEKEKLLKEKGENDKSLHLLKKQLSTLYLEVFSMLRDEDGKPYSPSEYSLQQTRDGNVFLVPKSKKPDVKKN

NFkappB = conditions: cited from earlier work
AP-1 = conditions: same concentrations; cited from earlier work
[10] = single topical dose, human skin; cited from earlier work
human skin biomarkers = conditions: cited from earlier work
[11] = cited from earlier work; remark: listed apart in the source
[12] = 12 weeks; Equol alone at 0.3%; cited from earlier work
[13] = cited from earlier work; remark: listed apart in the source
[14] = in vivo; cited from earlier work

Estrogen Receptor Beta (β), sequence (Q92731 whole entry, species assumed): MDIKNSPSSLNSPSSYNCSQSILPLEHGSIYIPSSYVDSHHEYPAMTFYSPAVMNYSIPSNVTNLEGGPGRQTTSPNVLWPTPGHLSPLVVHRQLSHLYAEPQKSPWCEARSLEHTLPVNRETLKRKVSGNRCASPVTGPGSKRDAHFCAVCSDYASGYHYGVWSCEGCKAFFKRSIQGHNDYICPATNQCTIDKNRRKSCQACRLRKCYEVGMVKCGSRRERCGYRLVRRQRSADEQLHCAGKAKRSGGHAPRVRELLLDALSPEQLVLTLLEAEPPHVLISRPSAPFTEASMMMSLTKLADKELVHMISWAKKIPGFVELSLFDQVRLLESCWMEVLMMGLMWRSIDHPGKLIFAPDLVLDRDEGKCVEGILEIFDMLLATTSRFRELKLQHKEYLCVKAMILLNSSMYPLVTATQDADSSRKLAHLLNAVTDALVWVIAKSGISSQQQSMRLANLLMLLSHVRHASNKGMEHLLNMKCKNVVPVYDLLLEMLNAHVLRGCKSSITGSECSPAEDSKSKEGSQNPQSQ
Estrogen Receptor Alpha (α), sequence (P03372 whole entry): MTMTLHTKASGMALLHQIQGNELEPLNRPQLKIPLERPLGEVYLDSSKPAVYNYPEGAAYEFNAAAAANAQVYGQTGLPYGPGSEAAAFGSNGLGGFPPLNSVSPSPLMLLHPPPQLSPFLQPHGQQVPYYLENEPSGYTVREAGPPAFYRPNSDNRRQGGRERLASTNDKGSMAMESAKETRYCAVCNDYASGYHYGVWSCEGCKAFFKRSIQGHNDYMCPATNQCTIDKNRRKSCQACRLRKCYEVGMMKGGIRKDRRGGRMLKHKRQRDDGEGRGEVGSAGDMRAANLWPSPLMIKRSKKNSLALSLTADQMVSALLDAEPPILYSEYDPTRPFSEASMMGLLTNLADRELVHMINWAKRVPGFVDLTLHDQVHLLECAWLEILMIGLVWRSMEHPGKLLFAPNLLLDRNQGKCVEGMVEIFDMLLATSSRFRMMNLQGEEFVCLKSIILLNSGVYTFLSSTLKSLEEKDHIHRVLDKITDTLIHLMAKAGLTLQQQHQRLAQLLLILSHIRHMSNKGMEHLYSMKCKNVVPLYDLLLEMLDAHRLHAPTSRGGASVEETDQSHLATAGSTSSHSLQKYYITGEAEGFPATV

C=C(C)[C@@H]1CCC(C)=C[C@H]1c1c(O)cc(CCCCC)cc1O [CBD, cannabidiol]
epidermal and dermal components and epidermal/dermal borders (histology) [1]: intact and healthy
relative percent cell viability, full thickness cultures (MTT) ([2]; FIG. 15): around 100%
relative percent cell viability, dermal layer only (MTT) ([3]; FIG. 16): around 100%

Oc1ccc([C@@H]2COc3cc(O)ccc3C2)cc1 [R-Equol, R-equol]
Inhibits 5α-Reductase Enzyme (type 1 in skin) [4]: Yes
affinity for ERβ [5]: weak affinity
Ki [5]: 15.4 nM
affinity for ER alpha [6]: weak affinity
Ki [6]: 27.4 nM
Oral Metabolism in Humans (pharmacokinetics compared to each other) [7]: Similar
Stimulates Collagen (Collagen): Yes
Stimulates Elastin (Elastin): Yes
Stimulates TIMPI (TIMP1): No, or at very low
Stimulates Growth Factors (Growth Factors): Yes, to high levels
Inhibits Inflammatory Molecules (Inflammatory Molecules): Yes, high inhibition
more stable isomer, R-equol vs. S-equol [8]: more stable isomer

Oc1ccc(C2COc3cc(O)ccc3C2)cc1 (racemic) [Racemic Equol, equol]
Inhibits 5α-Reductase Enzyme (type 1 in skin) [4]: Yes
IC50 ([5]; read-out: Binds Estrogen Receptor Beta (β), IC50): 200 nM
IC50 ([6]; read-out: Binds Estrogen Receptor Alpha (α), IC50): 1500 nM
Binds/Activates Estrogen Related Receptor gamma (γ) [9]: Yes
Oral Metabolism in Humans (pharmacokinetics compared to each other) [7]: Similar
Stimulates Collagen (Collagen): Yes
Stimulates Elastin (Elastin): Yes
Inhibits Elastase (Elastase): Yes
Stimulates TIMPI (TIMP1): Yes
Inhibits MMPs (MMPs): Yes, to moderate
Stimulates Growth Factors (Growth Factors): Yes, to moderate
Binds Nrf2/activates other antioxidants (Nrf2): Yes
Inhibits NFkappB (NFkappB): Yes, high inhibition
Inhibits Inflammatory Molecules (Inflammatory Molecules): Yes, high inhibition
TPA-induced activation of AP-1 (AP-1): dose-dependently attenuated

Oc1ccc([C@H]2COc3cc(O)ccc3C2)cc1 (racemic) [Equol, equol]
epidermal and dermal components and epidermal/dermal borders (histology) [1]: intact and healthy
relative percent cell viability, full thickness cultures (MTT) ([2]; human): around 100%
relative percent cell viability, dermal layer only (MTT) ([3]; human): around 100%
transcriptional activity of ERR γ [9]: enhanced
skin penetration profile, peak time [10]: around 8 hours
sustained release after the initial application [10]: up to 28 hours
number of human skin biomarkers/genes significantly altered (human skin biomarkers): 39
circulates in the free or unbound form in plasma [11]: approximately 50%
Even Skin Tone, Self-Assessment Questionnaire efficacy [12]: 70%
Frown Lines/Wrinkles, Self-Assessment Questionnaire efficacy [12]: 72%
Hydration, Self-Assessment Questionnaire efficacy [12]: 71%
Pore Size, Self-Assessment Questionnaire efficacy [12]: 51%
Radiance/Brightness, Self-Assessment Questionnaire efficacy [12]: 73%
Skin Firmness, Self-Assessment Questionnaire efficacy [12]: 77%
Smoothness, Self-Assessment Questionnaire efficacy [12]: 62%
Spots/Discoloration, Self-Assessment Questionnaire efficacy [12]: 55%

CC1=C(/C=C/C(C)=C/C=C/C(C)=C/C=C/C=C(C)/C=C/C=C(C)/C=C/C2=C(C)C(=O)[C@@H](O)CC2(C)C)C(C)(C)C[C@H](O)C1=O [astaxanthin, reference compound]
number of human skin biomarkers/genes significantly altered (human skin biomarkers): 6

CCCCCc1cc(O)c2c(c1)OC(C)(C)[C@@H]1CCC(C)=C[C@@H]21 [THC, tetrahydrocannabinol]
solubility in most organic solvents ([13]; organic solvents, particularly lipids and alcohols): good solubility
solubility in water ([13]; water): low solubility

O=c1c(-c2ccc(O)cc2)coc2cc(O)ccc12 [daidzein, reference compound]
transcriptional activity of ERR γ [9]: did not have this effect
TPA-induced activation of AP-1 (AP-1): did not exert any effect
intestinal absorption levels [14]: 30-40%

O=c1c(-c2ccc(O)cc2)coc2cc(O)cc(O)c12 [genistein]
intestinal absorption levels [14]: 15-20%

Oc1ccc([C@H]2COc3cc(O)ccc3C2)cc1 [S-Equol, S-equol]
Inhibits 5α-Reductase Enzyme (type 1 in skin) [4]: No
binding to estrogen receptor beta relative to 17β-estradiol ([5]; as well as 17β-estradiol): approximately ⅕
Ki [5]: 6.4 nM
affinity for ER alpha [6]: low affinity
Ki [6]: 15.4 nM
Oral Metabolism in Humans (pharmacokinetics compared to each other) [7]: Similar
Stimulates Collagen (Collagen): Yes
Stimulates Elastin (Elastin): No
Stimulates TIMPI (TIMP1): Yes
Inhibits MMPs (MMPs): Yes, to low levels of
Stimulates Growth Factors (Growth Factors): Yes, to low levels
Inhibits Inflammatory Molecules (Inflammatory Molecules): Yes, low inhibition

Reference: patent US20210145764A1, “COMPOSITIONS OF CANNABIDIOL (CBD), AND/OR POLYPHENOLS, AND METHODS FOR THE PREVENTION AND/OR TREATMENT OF SKIN, MUSCLE, NERVE AND INFLAMMATORY DISORDERS, AND BIOLOGICAL FACTORS AND FUNCTIONS IN MAMMALS” (BRIGHAM YOUNG UNIVERSITY, priority 2019, published 2021)
